# According to US20180305669A1, “MICROTISSUE FORMATION USING STEM CELL-DERIVED HUMAN HEPATOCYTES” (FUJIFILM Cellular Dynamics, Inc., priority 2015, published 2018):
# Legend:
# CYP1A2 = assay: P450-GLO CYP1A2 assay, drug-induced CYP activity in 3-D microtissue of iCell Hepatocytes; conditions: day 6 spheroids, 20% GELTREX, about 0.1 to 100 μM for about 24 hours
induction of CYP1A2 activity (CYP1A2),Compound,hepatotoxicity response (iCell Hepatocytes)
–,O=C(O)Cc1ccccc1Nc1c(Cl)cccc1Cl [Diclofenac],Increased sensitivity
about 2.5 fold,COc1ccc2[nH]c([S+]([O-])Cc3ncc(C)c(OC)c3C)nc2c1 (stereo not drawn) [Omeprazole],–
–,Cc1ccc(C(=O)c2cc(O)c(O)c([N+](=O)[O-])c2)cc1 [Tolcapone],Increased sensitivity
